Results published in patent publication US10047051B2, “Substituted pyridines and method of use” (AbbVie S.á{acute over (.)}r.l., priority 2015, dated 2018).

What was measured:
CFTR G551D mutant = molecular target: T1, CFTR G551D mutant (Homo sapiens, UniProt P13569, G551D); assay: YFP-halide influx assay for the CFTR-G551D mutation (HEK293 cells); type: cell-based; conditions: forskolin 10.67 μM
T1 construct: expressed in transfected cells; host or cells: HEK293 cells, reverse transfection with plasmids
T1 sequence (P13569 whole entry G551D): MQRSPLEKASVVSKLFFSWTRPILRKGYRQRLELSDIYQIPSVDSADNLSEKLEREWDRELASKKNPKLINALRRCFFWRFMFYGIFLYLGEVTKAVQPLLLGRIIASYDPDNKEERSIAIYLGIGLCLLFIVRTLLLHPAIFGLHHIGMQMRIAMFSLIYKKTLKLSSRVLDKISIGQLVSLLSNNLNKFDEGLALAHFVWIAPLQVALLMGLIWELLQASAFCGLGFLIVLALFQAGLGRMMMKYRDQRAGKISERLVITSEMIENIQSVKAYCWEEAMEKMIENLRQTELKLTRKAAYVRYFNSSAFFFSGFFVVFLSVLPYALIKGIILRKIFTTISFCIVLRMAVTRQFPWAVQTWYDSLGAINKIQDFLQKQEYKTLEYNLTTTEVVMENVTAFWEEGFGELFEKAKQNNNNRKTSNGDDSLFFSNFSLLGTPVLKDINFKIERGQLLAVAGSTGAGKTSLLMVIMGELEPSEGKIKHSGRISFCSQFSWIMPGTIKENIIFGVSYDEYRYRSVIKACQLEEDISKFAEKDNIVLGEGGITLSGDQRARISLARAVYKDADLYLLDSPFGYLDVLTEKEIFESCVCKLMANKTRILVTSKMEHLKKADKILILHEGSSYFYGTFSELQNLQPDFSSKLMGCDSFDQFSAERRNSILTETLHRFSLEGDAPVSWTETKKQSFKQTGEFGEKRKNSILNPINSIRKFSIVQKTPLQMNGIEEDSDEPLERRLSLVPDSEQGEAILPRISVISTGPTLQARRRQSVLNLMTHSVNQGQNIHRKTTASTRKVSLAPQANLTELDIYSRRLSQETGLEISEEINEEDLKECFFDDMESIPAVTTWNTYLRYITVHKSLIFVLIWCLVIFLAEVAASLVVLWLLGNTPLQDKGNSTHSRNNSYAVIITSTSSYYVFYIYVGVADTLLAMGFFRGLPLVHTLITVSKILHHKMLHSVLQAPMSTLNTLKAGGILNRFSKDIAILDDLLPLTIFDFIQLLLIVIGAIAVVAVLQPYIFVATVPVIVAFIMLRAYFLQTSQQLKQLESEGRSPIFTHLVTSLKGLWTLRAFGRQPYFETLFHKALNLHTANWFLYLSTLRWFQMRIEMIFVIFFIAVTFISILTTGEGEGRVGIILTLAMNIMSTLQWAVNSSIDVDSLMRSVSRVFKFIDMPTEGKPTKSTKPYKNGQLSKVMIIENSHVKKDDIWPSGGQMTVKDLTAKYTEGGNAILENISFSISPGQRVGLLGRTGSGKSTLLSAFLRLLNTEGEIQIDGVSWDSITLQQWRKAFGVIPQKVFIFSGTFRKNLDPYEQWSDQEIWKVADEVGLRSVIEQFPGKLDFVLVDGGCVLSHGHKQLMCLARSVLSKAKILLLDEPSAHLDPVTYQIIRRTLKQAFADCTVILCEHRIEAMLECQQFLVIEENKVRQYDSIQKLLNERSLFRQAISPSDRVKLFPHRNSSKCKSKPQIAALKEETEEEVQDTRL
Procedure, shortened: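 HEK293 cells reverse-transfected with CFTR G551D and halide-sensitive YFP (H148Q/I152L/F47L), expressed 24 h at 37 °C. YFP fluorescence quenching recorded for 7 s after I⁻ injection. Response = 1−F/F0; EC50 derived from 1−F/F0 vs compound concentration.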

CFTR ΔF508 mutant = molecular target: T2, CFTR ΔF508 mutant (Homo sapiens, UniProt P13569, DEL508-508); assay: YFP-halide influx assay for the CFTR-ΔF508 mutation (CFBE41o- cells); type: cell-based; conditions: forskolin 10.67 μM; for EC50: from (1−F/F0) vs concentration plot
T2 construct: expressed in transfected cells; host or cells: CFBE41o- cells, adenoviral transduction
T2 sequence (P13569 with tags, fused parts or gaps DEL508-508): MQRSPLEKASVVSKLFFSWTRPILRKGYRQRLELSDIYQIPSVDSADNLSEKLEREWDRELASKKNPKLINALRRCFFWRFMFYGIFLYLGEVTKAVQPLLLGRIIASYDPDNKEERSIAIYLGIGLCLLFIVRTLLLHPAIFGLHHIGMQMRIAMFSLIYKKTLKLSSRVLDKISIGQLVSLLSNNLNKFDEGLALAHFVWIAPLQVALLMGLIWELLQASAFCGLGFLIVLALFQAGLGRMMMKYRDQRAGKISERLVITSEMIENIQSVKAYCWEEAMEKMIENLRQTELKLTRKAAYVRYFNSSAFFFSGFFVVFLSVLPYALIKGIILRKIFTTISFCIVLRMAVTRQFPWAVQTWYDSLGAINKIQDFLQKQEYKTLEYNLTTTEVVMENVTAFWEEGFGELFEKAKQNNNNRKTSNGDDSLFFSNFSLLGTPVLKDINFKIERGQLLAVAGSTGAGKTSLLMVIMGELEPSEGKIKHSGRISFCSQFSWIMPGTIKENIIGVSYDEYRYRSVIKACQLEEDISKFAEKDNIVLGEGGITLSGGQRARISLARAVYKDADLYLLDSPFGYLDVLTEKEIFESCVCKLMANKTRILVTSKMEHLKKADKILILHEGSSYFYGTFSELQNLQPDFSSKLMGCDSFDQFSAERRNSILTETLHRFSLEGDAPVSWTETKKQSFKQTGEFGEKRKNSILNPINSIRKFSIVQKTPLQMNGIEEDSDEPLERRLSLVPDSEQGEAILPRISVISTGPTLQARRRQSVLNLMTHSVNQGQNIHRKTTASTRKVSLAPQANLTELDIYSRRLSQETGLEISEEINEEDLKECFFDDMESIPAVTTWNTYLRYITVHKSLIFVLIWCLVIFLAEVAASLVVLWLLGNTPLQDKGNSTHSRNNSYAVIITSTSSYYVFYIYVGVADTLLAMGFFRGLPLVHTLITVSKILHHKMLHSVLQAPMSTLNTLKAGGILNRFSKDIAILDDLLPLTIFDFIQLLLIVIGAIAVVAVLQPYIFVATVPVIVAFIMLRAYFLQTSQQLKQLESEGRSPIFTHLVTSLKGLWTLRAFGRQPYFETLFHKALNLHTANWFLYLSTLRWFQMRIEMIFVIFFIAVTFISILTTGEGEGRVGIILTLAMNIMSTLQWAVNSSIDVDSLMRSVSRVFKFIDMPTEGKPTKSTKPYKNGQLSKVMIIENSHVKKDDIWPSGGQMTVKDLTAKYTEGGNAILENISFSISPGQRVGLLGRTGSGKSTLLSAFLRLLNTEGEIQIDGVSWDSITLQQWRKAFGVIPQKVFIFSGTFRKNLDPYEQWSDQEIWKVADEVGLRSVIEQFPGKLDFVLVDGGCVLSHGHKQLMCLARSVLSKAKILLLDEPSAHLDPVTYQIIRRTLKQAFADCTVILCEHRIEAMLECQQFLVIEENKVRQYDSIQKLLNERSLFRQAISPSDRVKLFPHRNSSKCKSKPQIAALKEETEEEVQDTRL
Procedure, shortened: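 CFBE41o- cells transduced with adenovirus expressing CFTR ΔF508 and halide-sensitive YFP H148Q/I152L/F47L, then held 24 h at 27° C or with a CFTR modulator 24 h at 37° C. Iodide-induced quench recorded 2 min; EC50 from (1−F/F0) at 36 s versus concentration.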

`Nc1cc(S(=O)(=O)c2ccc(OC(F)(F)F)cc2)cnc1C(=O)NC1COC2(CCCCC2)C1` (stereo not shown) [Compound 149, 3-amino-N-(1-oxaspiro[4.5]dec-3-yl)-5-{[4-(trifluoromethoxy)phenyl]sulfonyl}pyridine-2-carboxamide] was tested, and the “% Activation” value (CFTR G551D mutant) was 42.7%, the EC50 (CFTR G551D mutant) was over 1670 nM and the “% Activation” value (CFTR ΔF508 mutant) was 91.2%. It also gave an EC50 (CFTR ΔF508 mutant) of 179 nM.

With `Nc1cc(S(=O)(=O)N2CCOc3ccccc32)cnc1C(=O)NCC(O)C(F)(F)F` (stereo not shown) [Compound 109, 3-amino-5-(2,3-dihydro-4H-1,4-benzoxazin-4-ylsulfonyl)-N-(3,3,3-trifluoro-2-hydroxypropyl)pyridine-2-carboxamide] the “% Activation” value (CFTR G551D mutant) was 62.6%, the EC50 (CFTR G551D mutant) was 296 nM and the “% Activation” value (CFTR ΔF508 mutant) was 104.0%. The EC50 (CFTR ΔF508 mutant) was 3.6 nM.

In the case of `C[C@@H]1CCCN1S(=O)(=O)c1cnc(C(=O)NCC(O)C(F)(F)F)c(N)c1` (stereo partly drawn) [Compound 179, 3-amino-5-{[(2R)-2-methylpyrrolidin-1-yl]sulfonyl}-N-(3,3,3-trifluoro-2-hydroxypropyl)pyridine-2-carboxamide], the “% Activation” value (CFTR G551D mutant) is reported as 52.6%, the EC50 (CFTR G551D mutant) is reported as 1350 nM and the “% Activation” value (CFTR ΔF508 mutant) is reported as 100.4%. For the same compound, the EC50 (CFTR ΔF508 mutant) was 27.7 nM.

In the case of `CC1CCN(S(=O)(=O)c2cnc(C(=O)NCC(O)C(F)(F)F)c(N)c2)CC1` (stereo not shown) [Compound 184, 3-amino-5-[(4-methylpiperidin-1-yl)sulfonyl]-N-(3,3,3-trifluoro-2-hydroxypropyl)pyridine-2-carboxamide], the “% Activation” value (CFTR G551D mutant) is reported as 66.4%, the EC50 (CFTR G551D mutant) is reported as 392 nM and the “% Activation” value (CFTR ΔF508 mutant) is reported as 111.0%. It also gave an EC50 (CFTR ΔF508 mutant) of 6.9 nM.

For `COCC(=O)NNC(=O)c1ncc(S(=O)(=O)c2ccc(OC(F)(F)F)cc2)cc1N` [Compound 286, 3-amino-N′-(methoxyacetyl)-5-{[4-(trifluoromethoxy)phenyl]sulfonyl}pyridine-2-carbohydrazide], the “% Activation” value (CFTR G551D mutant) was 26.8%, the “% Activation” value (CFTR ΔF508 mutant) was 79.7% and the EC50 (CFTR ΔF508 mutant) was 88.1 nM.

With `C[C@H](O)CNC(=O)c1ncc(S(=O)(=O)NCc2ccc(F)cc2)cc1N` [Compound 267, 3-amino-5-[(4-fluorobenzyl)sulfamoyl]-N-[(2S)-2-hydroxypropyl]pyridine-2-carboxamide] the “% Activation” value (CFTR G551D mutant) was 0.9%, the EC50 (CFTR G551D mutant) was over 10000 nM and the “% Activation” value (CFTR ΔF508 mutant) was 59.3%. For the same compound, the EC50 (CFTR ΔF508 mutant) was over 667 nM.

With `CC(C)(CCO)CNC(=O)c1ncc(S(=O)(=O)c2ccc(OC(F)(F)F)cc2)cc1N` [Compound 34, 3-amino-N-(4-hydroxy-2,2-dimethylbutyl)-5-{[4-(trifluoromethoxy)phenyl]sulfonyl}pyridine-2-carboxamide] the “% Activation” value (CFTR G551D mutant) was 70.2%, the EC50 (CFTR G551D mutant) was 1480 nM and the “% Activation” value (CFTR ΔF508 mutant) was 99.0%. For the same compound, the EC50 (CFTR ΔF508 mutant) was 91.1 nM.

For `Nc1cc(S(=O)(=O)c2ccc(C(F)(F)F)cc2F)cnc1C(=O)N1CC(F)(F)C1` [Compound 164, (3-amino-5-{[2-fluoro-4-(trifluoromethyl)phenyl]sulfonyl}pyridin-2-yl)(3,3-difluoroazetidin-1-yl)methanone], the “% Activation” value (CFTR G551D mutant) was 71.5%, the EC50 (CFTR G551D mutant) was 683 nM and the “% Activation” value (CFTR ΔF508 mutant) was 102.0%. It also gave an EC50 (CFTR ΔF508 mutant) of 8.2 nM.

In the case of `Nc1cc(S(=O)(=O)c2ccc(C(F)(F)F)cc2)cnc1C(=O)N1CC(O)(C(F)(F)F)C1` [Compound 105, (3-amino-5-{[4-(trifluoromethyl)phenyl]sulfonyl}pyridin-2-yl)[3-hydroxy-3-(trifluoromethyl)azetidin-1-yl]methanone], the “% Activation” value (CFTR G551D mutant) is reported as 50.4%, the EC50 (CFTR G551D mutant) is reported as 128 nM and the “% Activation” value (CFTR ΔF508 mutant) is reported as 103.5%. For the same compound, the EC50 (CFTR ΔF508 mutant) was 2 nM.

With `Nc1cc(S(=O)(=O)c2ccc(C(F)(F)F)cc2)cnc1C(=O)NC1(CO)CC1` [Compound 292, 3-amino-N-[1-(hydroxymethyl)cyclopropyl]-5-{[4-(trifluoromethyl)phenyl]sulfonyl}pyridine-2-carboxamide] the “% Activation” value (CFTR G551D mutant) was 28.5%, the EC50 (CFTR G551D mutant) was over 10000 nM and the “% Activation” value (CFTR ΔF508 mutant) was 72.4%. The EC50 (CFTR ΔF508 mutant) was 263 nM.

`Nc1cc(S(=O)(=O)c2ccc(C(F)(F)F)cc2)cnc1C(=O)N[C@@H]1CCC[C@@H]1O` [Compound 205, 3-amino-N-[(1R,2S)-2-hydroxycyclopentyl]-5-{[4-(trifluoromethyl)phenyl]sulfonyl}pyridine-2-carboxamide] was tested, and the “% Activation” value (CFTR G551D mutant) was 37.6%, the “% Activation” value (CFTR ΔF508 mutant) was 96.5% and the EC50 (CFTR ΔF508 mutant) was 59.9 nM.

For `CC(C)(CO)NC(=O)c1ncc(S(=O)(=O)c2ccc(C(F)(F)F)cc2)cc1N` [Compound 227, 3-amino-N-(1-hydroxy-2-methylpropan-2-yl)-5-{[4-(trifluoromethyl)phenyl]sulfonyl}pyridine-2-carboxamide], the “% Activation” value (CFTR G551D mutant) was 28.1%, the EC50 (CFTR G551D mutant) was over 10000 nM and the “% Activation” value (CFTR ΔF508 mutant) was 81.0%. It also gave an EC50 (CFTR ΔF508 mutant) of over 667 nM.

`Nc1cc(S(=O)(=O)N2CC(F)(F)C2)cnc1C(=O)NCC(O)C(F)(F)F` (stereo not shown) [Compound 97, 3-amino-5-[(3,3-difluoroazetidin-1-yl)sulfonyl]-N-(3,3,3-trifluoro-2-hydroxypropyl)pyridine-2-carboxamide] was tested, and the “% Activation” value (CFTR G551D mutant) was 23.8%, the EC50 (CFTR G551D mutant) was over 10000 nM and the “% Activation” value (CFTR ΔF508 mutant) was 92.9%. It also gave an EC50 (CFTR ΔF508 mutant) of 102 nM.

For `Nc1cc(S(=O)(=O)c2ccc(OC(F)(F)F)cc2)cnc1C(=O)N1CCC(O)C1` (stereo not shown) [Compound 4, (3-amino-5-{[4-(trifluoromethoxy)phenyl]sulfonyl}pyridin-2-yl)(3-hydroxypyrrolidin-1-yl)methanone], the “% Activation” value (CFTR G551D mutant) was 43.6%, the EC50 (CFTR G551D mutant) was 5770 nM and the “% Activation” value (CFTR ΔF508 mutant) was 92.1%. The EC50 (CFTR ΔF508 mutant) was 206 nM.

`CO[C@H]1CCC[C@@H]1NC(=O)c1ncc(S(=O)(=O)c2ccc(C(F)(F)F)cc2)cc1N` [Compound 293, 3-amino-N-[(1S,2S)-2-methoxycyclopentyl]-5-{[4-(trifluoromethyl)phenyl]sulfonyl}pyridine-2-carboxamide] was tested, and the “% Activation” value (CFTR G551D mutant) was 40.8%, the EC50 (CFTR G551D mutant) was over 3330 nM and the “% Activation” value (CFTR ΔF508 mutant) was 87.8%. For the same compound, the EC50 (CFTR ΔF508 mutant) was 135 nM.

`CC(C)C1(O)CN(C(=O)c2ncc(S(=O)(=O)c3ccc(C(F)(F)F)cc3F)cc2N)C1` [Compound 162, (3-amino-5-{[2-fluoro-4-(trifluoromethyl)phenyl]sulfonyl}pyridin-2-yl)[3-hydroxy-3-(propan-2-yl)azetidin-1-yl]methanone] was tested, and the “% Activation” value (CFTR G551D mutant) was 68.0%, the EC50 (CFTR G551D mutant) was 255 nM and the “% Activation” value (CFTR ΔF508 mutant) was 101.8%. It also gave an EC50 (CFTR ΔF508 mutant) of 2.7 nM.

In the case of `C[C@H](O)CNC(=O)c1nc(OCCN(C)C)c(S(=O)(=O)c2ccc(OC(F)(F)F)cc2)cc1N` [Compound 289, 3-amino-6-[2-(dimethylamino)ethoxy]-N-[(2S)-2-hydroxypropyl]-5-{[4-(trifluoromethoxy)phenyl]sulfonyl}pyridine-2-carboxamide], the “% Activation” value (CFTR G551D mutant) is reported as 31.0%, the “% Activation” value (CFTR ΔF508 mutant) is reported as 97.1% and the EC50 (CFTR ΔF508 mutant) is reported as 245 nM.

With `COc1ccnc(CNC(=O)c2ncc(S(=O)(=O)N3CCC[C@@H]3C)cc2N)n1` [Compound 281, 3-amino-N-[(4-methoxypyrimidin-2-yl)methyl]-5-{[(2S)-2-methylpyrrolidin-1-yl]sulfonyl}pyridine-2-carboxamide] the “% Activation” value (CFTR G551D mutant) was 50.0%, the EC50 (CFTR G551D mutant) was over 3330 nM and the “% Activation” value (CFTR ΔF508 mutant) was 89.4%. The EC50 (CFTR ΔF508 mutant) was 167 nM.

With `COCCCNC(=O)c1ncc(S(=O)(=O)c2ccc(C(F)(F)F)cc2)cc1N` [Compound 222, 3-amino-N-(3-methoxypropyl)-5-{[4-(trifluoromethyl)phenyl]sulfonyl}pyridine-2-carboxamide] the “% Activation” value (CFTR G551D mutant) was 48.4%, the EC50 (CFTR G551D mutant) was 816 nM and the “% Activation” value (CFTR ΔF508 mutant) was 108.7%. For the same compound, the EC50 (CFTR ΔF508 mutant) was 40.8 nM.

`Nc1cc(S(=O)(=O)c2ccc(C(F)(F)F)cc2)cnc1C(=O)N[C@H]1COCC[C@H]1O` [Compound 257, 3-amino-N-[(3S,4R)-4-hydroxytetrahydro-2H-pyran-3-yl]-5-{[4-(trifluoromethyl)phenyl]sulfonyl}pyridine-2-carboxamide] was tested, and the “% Activation” value (CFTR G551D mutant) was 50.4%, the EC50 (CFTR G551D mutant) was 760 nM and the “% Activation” value (CFTR ΔF508 mutant) was 122.0%. It also gave an EC50 (CFTR ΔF508 mutant) of 26.9 nM.

For `Nc1cc(S(=O)(=O)c2ccc(OC(F)(F)F)cc2)cnc1C(=O)NCC1CC(F)(F)C1` [Compound 153, 3-amino-N-[(3,3-difluorocyclobutyl)methyl]-5-{[4-(trifluoromethoxy)phenyl]sulfonyl}pyridine-2-carboxamide], the “% Activation” value (CFTR G551D mutant) was 47.6%, the EC50 (CFTR G551D mutant) was 760 nM and the “% Activation” value (CFTR ΔF508 mutant) was 105.0%. For the same compound, the EC50 (CFTR ΔF508 mutant) was 75.4 nM.

For `Nc1cc(S(=O)(=O)c2ccc(C(F)(F)F)cc2)cnc1C(=O)N[C@@H]1COCC[C@@H]1O` (racemic) [Compound 216, rac-3-amino-N-[(3R,4S)-4-hydroxytetrahydro-2H-pyran-3-yl]-5-{[4-(trifluoromethyl)phenyl]sulfonyl}pyridine-2-carboxamide], the “% Activation” value (CFTR G551D mutant) was 47.8%, the EC50 (CFTR G551D mutant) was 1140 nM and the “% Activation” value (CFTR ΔF508 mutant) was 98.6%. It also gave an EC50 (CFTR ΔF508 mutant) of 47.1 nM.
